Columns and labels:
[1] = biological target: T1, CLK1 (Mus musculus, UniProt P22518); experiment: Kinase inhibition assay (ADP-Glo); format: biochemical; conditions: 10 µM ATP
T1 construct: made in house; host or cells: bacteria
Protocol: MmCLK1 (from Mus musculus, recombinant, expressed in bacteria) was assayed in buffer A with 0.027μg/µL of the following peptide: GRSRSRSRSRSR as substrate.

[2] = biological target: T2, CDK5/p25 (Homo sapiens, UniProt Q00535); experiment: Kinase inhibition assay (ADP-Glo); format: biochemical; conditions: 10 µM ATP
T2 construct: made in house; host or cells: bacteria
Protocol: HsCDK5/p25 (human, recombinant, expressed in bacteria) was assayed in buffer A, with 0.8 µg/µL of histone H1 as substrate.

[3] = biological target: CK1δ/ε; experiment: Kinase inhibition assay (ADP-Glo); format: biochemical, Sus scrofa domesticus; conditions: 10 µM ATP
Protocol: SscCK1δ/ε (Sus scrofa domesticus, casein kinase 1δ/ε, affinity purified from porcine brain) was assayed in buffer A, with 0.022 μg/μL of the following peptide: RRKHAAIGSpAYSITA (“Sp” stands for phosphorylated serine) as CK1-specific substrate.

[4] = biological target: CDK2/CyclinA (Homo sapiens, UniProt P24941); experiment: Kinase inhibition assay (ADP-Glo); format: biochemical; conditions: 10 µM ATP
Protocol: HsCDK2/CyclinA (human, cyclin-dependent kinase-2, kindly provided by Dr. A. Echalier-Glazer, Leicester, UK) was assayed in buffer A with 0.8 µg/µL of histone H1 as substrate.

[5] = biological target: CDK9/CyclinT (Homo sapiens, UniProt P50750); experiment: Kinase inhibition assay (ADP-Glo)
Protocol: The protein kinases studied were: CDK2/CyclinA, CDK5/p25, CDK9/CyclinT (cyclin-dependent kinases), HASPIN (haploid germ cell-specific nuclear protein kinase), PIM1 (PIM family kinase 1), CLK1 (cdc2-like kinase 1), DYRK1A (dual-specificity tyrosine phosphorylation regulated kinase), CK1δ/ε (casein kinase 1 isoforms), GSK3α/β (glycogen synthase kinase 3) and AURKB (aurora kinase B). Initially, all compounds were first tested at 10 μM. […] Compounds displaying more than 50% inhibition at 10 μM were next tested over a wide range of concentrations (usually 0.01–10 μM), and IC50 values were determined from the dose-response curves (Sigma-Plot).
Kinase activities were assayed in appropriate kinase buffer, with either protein or peptide as substrate in the presence of 10 µM ATP in a final volume of 6 µL using the ADP-Glo^TM assay kit (Promega, Madison, WI, USA, as described in Zegzouti et al. [66]). Controls were performed with appropriate dilutions of dimethylsulfoxide (solvent of the tested compounds).
The buffers used for kinase assays are the following: (A) 10 mM MgCl2, 1 mM EGTA, 1 mM DTT, 25 mM Tris-HCl pH 7.5, 50 µg/mL heparin; (B) 25 mM MOPS, pH 7.2, 12.5 mM -glycerolphosphate, 25 mM MgCl2, 5 mM EGTA, 2 mM EDTA, 0.25 mM DTT.

[6] = biological target: T3, PIM1 (Homo sapiens, UniProt P11309); experiment: Kinase inhibition assay (ADP-Glo); format: biochemical; conditions: 10 µM ATP
T3 construct: made in house; host or cells: bacteria
Protocol: HsPIM1 (human proto-oncogene, recombinant, expressed in bacteria) was assayed in buffer B with 0.8 µg/µL of histone H1 (Sigma #H5505) as substrate.

[7] = biological target: T4, AURKB (Homo sapiens, UniProt Q96GD4); experiment: Kinase inhibition assay (ADP-Glo); format: biochemical; conditions: 10 µM ATP
T4 construct: purchased SignalChem A31-10G; host or cells: Sf9 insect cells (baculovirus)

[8] = test system: Peripheral Blood Mononuclear Cells (PBMCs); experiment: MTT cytotoxicity in normal cells, 72 h; format: cell-based, human; conditions: Homo sapiens, PBMC, 72 h of incubation
Protocol: In order to evaluate the cytotoxic potential in normal cells, all the derivatives were tested against Peripheral Blood Mononuclear Cells (PBMCs) and the most promising compounds were again compounds 3c and 4a, which offered more selectivity against the cancer cells.
Mononuclear cells were obtained from the peripheral blood of healthy volunteers by heparin tube collection and isolated by Ficoll-Histopaque gradient centrifugation. After centrifugation, the cells were harvested, washed and resuspended in RPMI 1640 medium supplemented with 20% fetal bovine serum, 2 mM glutamine, 100 U/mL penicillin and 100 μg/mL streptomycin (Gibco™ Life Technologies, Waltham, MA, USA). The phytohemagglutinin mitogen 2% was also added into the culture medium. After that, using the neubauer chamber, the cells were counted and plated in a 96-well plate at a concentration of 10^6 cells/mL and then were maintained for overnight under incubation at 37 °C and 5% CO2 [65].
(§1) The evaluation of the cytotoxicity of the compounds was performed by the method of 3-(4,5-dimethyl-2-thiazolyl)-2,5-diphenyl-2H-tetrazolium bromide (MTT) (Sigma Aldrich Co., St. Louis, MO, USA). To perform the assay the cells were seeded in 96-well plates at the following concentrations: HL-60 and K562 (0.3 × 10^6 cells/mL); MOLT-4 and PBMC (10^6 cells/mL); NCI-H292, HT-29, HEp-2 e MCF-7 (10^5 cells/mL). Briefly, the compounds previously dissolved in DMSO (dimethylsulfoxide, Vetec, São Paulo, Brazil), were diluted in medium and added to each well at the desired concentrations. For the calculation of the concentration that inhibits 50% of cell growth (IC50) the compounds were serially diluted to obtain the final concentrations between 0.19–25 μg/mL. Doxorubicin was used as the standard in the concentration range between (0.078–10 μg/mL). After 72 h of contact of the cells with the compounds, it was added to each well 25 μL of MTT solution (5 mg/mL). Plates were left for another 3 h in incubator at 37 °C and at the end of that period the supernatant was aspirated. To perform the reading, 100 μL of DMSO was added in each well for the dissolution of the formazan crystals. The amount of formazan was measured by reading the plate at 560 nm absorbance. The IC50 was calculated from the nonlinear regression in the Prisma 7.0 software (GraphPad, San Diego, CA, USA). Each sample was tested in triplicate in three independent experiments.

[9] = biological target: T5, DYRK1A (Rattus norvegicus, UniProt Q63470); experiment: Kinase inhibition assay (ADP-Glo); format: biochemical; conditions: 10 µM ATP
T5 construct: amino acids 1 to 499 including the kinase domain; made in house; host or cells: bacteria
Protocol: RnDYRK1A (Rattus norvegicus, amino acids 1 to 499 including the kinase domain, recombinant, expressed in bacteria, DNA vector kindly provided by Dr. W. Becker, Aachen, Germany) was assayed in buffer A with 0.033 μg/µL of the following peptide: KKISGRLSPIMTEQ as substrate.

[10] = test system: K562; experiment: MTT cytotoxicity, 72 h; format: cell-based, human; conditions: Homo sapiens, K562, 72 h of incubation
Protocol: (§2) The cytotoxicity assessment was performed against three human cancer cell lines in suspension (K562, HL-60 and MOLT-4) and four adhered (HEp-2, NCI-H292, HT-29 and MCF-7).
(§3) The cells were obtained from the Cell Bank of Rio de Janeiro and maintained in the Laboratory of Cell Culture of the Department of Antibiotics of the Federal University of Pernambuco. The lines K562 (myeloblastic leukaemia), HL-60 (promyelocytic leukemia) and MOLT-4 (lymphoblastic leukemia) were cultured in RPMI 1640 medium and the lines HEp-2 (larynx carcinoma), NCI-H292 (lung carcinoma), HT-29 (colon adenocarcinoma) and MCF-7 (breast adenocarcinoma) were cultured in DMEM medium, supplemented with 10% fetal bovine serum, 2 mM glutamine, 100 U/mL penicillin and 100 μg/mL streptomycin (Gibco™ Life Technologies), at 37 °C and 5% CO2.
as §1

[11] = test system: HEp-2; experiment: MTT cytotoxicity, 72 h; format: cell-based, human; conditions: Homo sapiens, HEp-2, 72 h of incubation
Protocol: as §2, §3, §1

[12] = test system: NCI-H292; experiment: MTT cytotoxicity, 72 h; format: cell-based, human; conditions: Homo sapiens, NCI-H292, 72 h of incubation
Protocol: as §2, §3, §1

[13] = test system: MOLT-4; experiment: MTT cytotoxicity, 72 h; format: cell-based, human; conditions: Homo sapiens, MOLT-4, 72 h of incubation
Protocol: as §2, §3, §1

[14] = test system: HT-29; experiment: MTT cytotoxicity, 72 h; format: cell-based, human; conditions: Homo sapiens, HT-29, 72 h of incubation
Protocol: as §2, §3, §1

[15] = test system: HL-60; experiment: MTT cytotoxicity, 72 h; format: cell-based, human; conditions: Homo sapiens, HL-60; MTT, 72 h of incubation
Protocol: as §2, §3, §1

[16] = test system: MCF-7; experiment: MTT cytotoxicity, 72 h; format: cell-based, human; conditions: Homo sapiens, MCF7, 72 h of incubation
Protocol: as §2, §3, §1

[17] = biological target: GSK3 α/β; experiment: Kinase inhibition assay (ADP-Glo); format: biochemical, Sus scrofa domesticus; conditions: 10 µM ATP
Protocol: SscGSK-3α/β (Sus scrofa domesticus, glycogen synthase kinase-3, affinity purified from porcine brain) was assayed in buffer A with 0.010 µg/µL of GS-1 peptide, a GSK-3-selective substrate ([…]pEDEEE, “Sp” stands for phosphorylated serine).

[18] = biological target: T6, HASPIN (Homo sapiens, UniProt Q8TF76); experiment: Kinase inhibition assay (ADP-Glo); format: biochemical; conditions: 10 µM ATP
T6 construct: kinase domain, amino acids 470 to 798; made in house; host or cells: bacteria
T6 sequence (Q8TF76 470-798): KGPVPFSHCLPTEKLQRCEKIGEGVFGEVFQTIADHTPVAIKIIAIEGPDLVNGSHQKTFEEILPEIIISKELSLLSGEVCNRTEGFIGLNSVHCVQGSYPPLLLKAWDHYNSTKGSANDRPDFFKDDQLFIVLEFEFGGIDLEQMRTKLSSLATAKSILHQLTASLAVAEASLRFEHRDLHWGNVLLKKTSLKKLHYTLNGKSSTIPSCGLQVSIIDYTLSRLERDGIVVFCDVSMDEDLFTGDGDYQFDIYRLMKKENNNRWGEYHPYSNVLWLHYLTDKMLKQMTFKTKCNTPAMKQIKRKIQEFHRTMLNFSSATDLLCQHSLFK
Protocol: HsHASPIN (human, kinase domain, amino acids 470 to 798, recombinant, expressed in bacteria) was assayed in buffer A with 0.007 µg/µL of Histone H3 (1-21) peptide ([…]) as substrate;

[19] = test system: K562, HL-60, MOLT-4, HEp-2, NCI-H292, HT-29 and MCF-7 tumor cell lines; experiment: Cytotoxic screening against the panel of tumor cell lines (MTT); format: cell-based, human; conditions: result in words
Protocol: as §2, §3
as §1, with “Plates were left for another 3 h in incubator at 37 °C and at the end of that period the supernatant was aspirated.” left out, “Each sample was tested in triplicate in three independent experiments.” left out

[20] = test system: HL-60 cells; experiment: Annexin V-FITC/7-AAD test, flow cytometry; format: cell-based, human; conditions: 0.11 μM, 72 h
Protocol: Aiming to better study the mechanism of induction of death involved in HL-60 cells after treatment with compounds 3c and 4a, a flow cytometric test was performed after double staining with annexin V-FITC/7-AAD. This assay is based on the ability of annexin V to bind with high affinity to phosphatidylserine which is translocated to the outer membrane of apoptotic cells and the 7-AAD dye binds to the DNA of cells with loss of membrane integrity. Thus, in this test it is possible to identify four distinct populations: viable cells [Annexin V(−) and 7-AAD(−)], initial apoptotic cells [Annexin V(+) and 7-AAD(−)], late apoptotic cells [Annexin V(+) and 7-AAD(+)] and dead cells [Annexin V(−) and 7-AAD (+)] [59].
(§4) HL-60 cells (3 × 10^5) were plated in 24-well plates and treated with the compounds 3c (13 and 26 μM) and 4a (11 and 22 μM) for 72 h at 37 °C with 5% CO2. In all trials, doxorubicin was used as a positive control. After the incubation period, an aliquot of 500 μL of treated and untreated cells suspension was transferred to an Eppendorf tube and centrifuged to remove the supernatant and continue the protocol of the test. In the cell viability and annexin V assays, kits were used, ViaCount kit and guava nexin kit (Guava Technologies), respectively. The protocols performed in these tests followed the manufacturer’s instructions. For to analyze mitochondrial depolarization, rhodamine 123 fluorescent dye was used. In the assay for cell cycle analysis and DNA fragmentation propidium iodide was used. The experiments were performed on Guava EasyCyte HT (Merck-Millipore) flow cytometer, acquiring 5000 events. The data were analyzed in Guava-Soft™ software version 2.7. Three independent experiments were performed in triplicate.

[21] = test system: HL-60 cells; experiment: Mitochondrial transmembrane potential (rhodamine 123), flow cytometry; format: cell-based, human; conditions: 0.11 μM, 72 h
Protocol: In this sense, in order to evaluate if compounds 3c and 4a induce apoptosis by alterating the mitochondria transmembrane potential, this assay was performed by flow cytometry using the fluorochrome rhodamine 123, because this is able to accumulate in cells with unchanged mitochondrial transmembrane potential.
as §4

T2 sequence (Q00535 whole entry): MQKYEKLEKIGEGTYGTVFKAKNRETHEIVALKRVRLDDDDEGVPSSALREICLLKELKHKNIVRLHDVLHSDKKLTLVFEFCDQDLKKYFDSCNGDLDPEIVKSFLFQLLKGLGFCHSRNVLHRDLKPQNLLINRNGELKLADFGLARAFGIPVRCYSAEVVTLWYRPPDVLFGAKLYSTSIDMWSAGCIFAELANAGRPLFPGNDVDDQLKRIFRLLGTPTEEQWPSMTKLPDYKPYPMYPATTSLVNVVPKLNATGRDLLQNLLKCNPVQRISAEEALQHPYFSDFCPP
T2 sequence (Q15078 99-307 partner limits assumed): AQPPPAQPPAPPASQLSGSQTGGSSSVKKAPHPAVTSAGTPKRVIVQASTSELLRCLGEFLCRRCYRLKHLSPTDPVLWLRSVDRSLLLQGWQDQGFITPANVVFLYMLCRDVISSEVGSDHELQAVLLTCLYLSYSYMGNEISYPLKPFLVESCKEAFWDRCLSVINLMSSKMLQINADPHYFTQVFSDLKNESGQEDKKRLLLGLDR
T4 sequence (Q96GD4 whole entry): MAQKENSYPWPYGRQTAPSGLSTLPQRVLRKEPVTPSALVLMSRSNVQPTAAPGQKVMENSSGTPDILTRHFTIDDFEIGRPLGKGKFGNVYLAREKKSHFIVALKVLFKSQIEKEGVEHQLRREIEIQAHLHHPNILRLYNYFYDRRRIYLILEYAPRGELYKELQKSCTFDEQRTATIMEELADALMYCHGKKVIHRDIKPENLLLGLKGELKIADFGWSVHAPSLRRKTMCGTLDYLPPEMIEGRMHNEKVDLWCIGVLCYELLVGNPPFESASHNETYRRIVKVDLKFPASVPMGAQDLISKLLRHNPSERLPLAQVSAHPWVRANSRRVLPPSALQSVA
T3 sequence (P11309 whole entry): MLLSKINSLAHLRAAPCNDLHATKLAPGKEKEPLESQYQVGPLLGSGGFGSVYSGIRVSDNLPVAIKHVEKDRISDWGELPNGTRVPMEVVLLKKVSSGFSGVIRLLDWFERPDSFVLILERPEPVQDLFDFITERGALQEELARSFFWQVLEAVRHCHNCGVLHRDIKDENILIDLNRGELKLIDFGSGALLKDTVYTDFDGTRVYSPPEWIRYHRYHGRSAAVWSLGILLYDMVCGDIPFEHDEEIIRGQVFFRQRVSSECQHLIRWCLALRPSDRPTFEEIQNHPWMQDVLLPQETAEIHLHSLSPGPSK
Chain of CDK9/CyclinT (P50750 whole entry): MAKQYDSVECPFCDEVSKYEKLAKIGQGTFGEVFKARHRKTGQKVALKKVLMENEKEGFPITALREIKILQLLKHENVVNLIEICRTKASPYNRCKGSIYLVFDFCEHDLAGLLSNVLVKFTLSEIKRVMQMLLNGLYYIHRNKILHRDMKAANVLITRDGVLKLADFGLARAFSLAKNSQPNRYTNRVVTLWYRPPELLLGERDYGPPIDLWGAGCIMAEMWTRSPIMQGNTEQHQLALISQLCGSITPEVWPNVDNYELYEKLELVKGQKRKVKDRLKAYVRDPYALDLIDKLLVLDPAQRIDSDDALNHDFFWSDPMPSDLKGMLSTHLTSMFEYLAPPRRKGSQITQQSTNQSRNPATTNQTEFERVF
Chain of CDK9/CyclinT (O60563 whole entry partner): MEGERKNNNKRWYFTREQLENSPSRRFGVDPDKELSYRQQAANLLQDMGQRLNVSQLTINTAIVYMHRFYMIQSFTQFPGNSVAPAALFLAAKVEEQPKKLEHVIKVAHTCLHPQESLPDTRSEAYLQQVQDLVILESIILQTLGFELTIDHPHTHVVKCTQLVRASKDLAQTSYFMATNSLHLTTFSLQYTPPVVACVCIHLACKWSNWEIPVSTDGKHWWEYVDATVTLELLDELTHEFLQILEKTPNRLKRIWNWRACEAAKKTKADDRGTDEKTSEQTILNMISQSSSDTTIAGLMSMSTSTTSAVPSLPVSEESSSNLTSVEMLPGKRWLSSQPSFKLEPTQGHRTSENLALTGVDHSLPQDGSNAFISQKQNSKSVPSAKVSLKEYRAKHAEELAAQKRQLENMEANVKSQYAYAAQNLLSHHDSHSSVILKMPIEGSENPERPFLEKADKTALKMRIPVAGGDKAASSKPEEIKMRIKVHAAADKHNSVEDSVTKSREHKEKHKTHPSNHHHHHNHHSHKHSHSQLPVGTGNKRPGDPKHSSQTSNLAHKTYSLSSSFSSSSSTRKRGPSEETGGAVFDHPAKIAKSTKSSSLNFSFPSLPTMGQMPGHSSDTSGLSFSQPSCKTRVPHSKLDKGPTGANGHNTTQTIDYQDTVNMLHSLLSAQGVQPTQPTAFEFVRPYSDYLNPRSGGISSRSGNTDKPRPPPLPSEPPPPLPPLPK
T1 sequence (P22518 whole entry): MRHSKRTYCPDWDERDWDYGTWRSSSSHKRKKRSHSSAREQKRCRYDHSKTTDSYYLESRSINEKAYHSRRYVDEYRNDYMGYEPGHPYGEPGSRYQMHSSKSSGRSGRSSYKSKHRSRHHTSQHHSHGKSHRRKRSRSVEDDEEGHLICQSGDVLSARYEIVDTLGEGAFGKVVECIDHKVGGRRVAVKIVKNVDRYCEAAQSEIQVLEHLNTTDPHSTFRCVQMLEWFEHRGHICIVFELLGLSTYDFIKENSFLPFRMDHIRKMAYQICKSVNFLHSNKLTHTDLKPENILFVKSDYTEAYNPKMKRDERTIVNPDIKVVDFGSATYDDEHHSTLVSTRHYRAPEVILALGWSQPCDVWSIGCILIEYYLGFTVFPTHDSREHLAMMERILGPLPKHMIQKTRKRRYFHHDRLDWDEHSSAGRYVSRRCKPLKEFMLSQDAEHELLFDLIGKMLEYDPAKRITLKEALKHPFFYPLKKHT

| Compound | IC50 [8] [µM] | IC50 [10] [µM] | IC50 [11] [µM] | IC50 [12] [µM] | IC50 [13] [µM] | IC50 [14] [µM] | IC50 [15] [µM] | IC50 [16] [µM] | melting point [°C] | further results |
| --- | --- | --- | --- | --- | --- | --- | --- | --- | --- | --- |
| CC(C)(C)c1ccc(C=NNC(N)=O)cc1 [Compound 3h, 4-Tert-Butylbenzaldehyde Semicarbazone] | 49.7 ± 1.06 | > 100 | 42.9 ± 0.75 | 48.8 ± 0.97 | 25.5 ± 1.9 | 47 ± 0.75 | > 100 | 58.4 ± 1.86 | 216 to 218 | IC50 [1]: 1.9 µM; IC50 [2]: > 10 µM; IC50 [3]: > 10 µM; IC50 [4]: > 10 µM; IC50 [5]: > 10 µM; IC50 [6]: > 10 µM; IC50 [7]: > 10 µM; IC50 [9]: > 10 µM; IC50 [17]: > 10 µM; IC50 [18]: > 10 µM |
| NC(=O)N/N=C/c1ccco1 [Compound 3l, 2-Furfuraldehyde Semicarbazone] | > 100 | > 100 | > 100 | > 100 | > 100 | > 100 | > 100 | > 100 | 202 to 204 | antiproliferative activity against the tested cell lines [19]: inactive |
| COc1cccc2c1C(=O)c1c(O)c3c(c(O)c1C2=O)C[C@@](O)(C(=O)CO)C[C@@H]3O[C@H]1C[C@H](N)[C@H](O)[C@H](C)O1 [Doxo, doxorubicin, reference compound] | 5.33 ± 0.62 | 1.47 ± 0.09 | 1.28 ± 0.11 | 0.18 ± 0.02 | 0.73 ± 0.08 | 0.73 ± 0.09 | 0.11 ± 0.01 | 0.2 ± 0.03 | – | cells in initial apoptosis [Annexin V(+) and 7-AAD(−)] [20]: 23.7%; cells in late apoptosis [Annexin V(+) and 7-AAD(+)] [20]: 19%; depolarized cells [21]: 41.8% |

From article PMC6958387, “Biological Evaluation of Arylsemicarbazone Derivatives as Potential Anticancer Agents” (Pharmaceuticals, 2019)
